Reference: patent publication US5521200A, “2-oxo-pyrrolo[1,2-A]benzimidazole-3-carboxyl derivatives useful in treating central nervous system disorders” (priority 1994, dated 1996)

Experiments:
[1] = target: benzodiazepine site of the GABA-A receptor; assay: Benzodiazepine Receptor Binding Assay (inhibition of 3H-flunitrazepam binding); conditions: ca. 3 nM 3H-flunitrazepam, 10-20 min at 25° C., membranes; over 10,000 = not active
[2] = tested on: adult male rat (conflict behavior suppressed by punishment); assay: Suppression of anxiety in the adult male rat (Conflict, Vogel); assay type: in vivo; conditions: ip, minimum effective dose, greater than 10 = active dose not determined, read-out: Conflict MED
Text: The experiment was run the next day.

[3] = tested on: metrazol-induced convulsions in mice; assay: Suppression of Metrazol-Induced Convulsions; assay type: in vivo, mouse (male CD1 mice); conditions: Mus musculus, ip, sc metrazol CD90, block of clonic convulsions, greater than 30 = active dose not determined

Structure (SMILES)	IC50 [1]	minimal effective dose [2]	ED50 [3]
CCN1C2=C(C(=O)Nc3c(F)cccc3F)C(=O)CN2c2ccccc21 [CP #7, N-(2,6-Difluorophenyl)-1,2-dihydro-4-ethyl-4H-pyrrolo[1,2-a]benzimidazole-3-carboxamide-2(1H)-one]	> 10 µM	> 10 mg/kg	> 10 mg/kg
O=C1CN2C(=C1C(=O)Nc1ccc(F)cc1F)Nc1ccccc12 [CP #8, N-(2,4-Difluorophenyl)-1,2-dihydro-2-oxo-4H-pyrrolo[1,2-a]benzimidazole-3-carboxamide]	> 10 µM	> 10 mg/kg	–
O=C1CN2C(=C1C(=O)Nc1ccncc1)Nc1ccccc12 [CP #1, N-(4-Pyridyl)-1,2-dihydro-4H-pyrrolo[1,2-a]benzimidazole-3-carboxamide-2(1H)-one]	7.22 µM	> 10 mg/kg	> 10 mg/kg
O=C1CN2C(=C1C(=O)Nc1cc(F)ccc1F)Nc1ccccc12 [CP #3, N-(2,5-Difluorophenyl)-1,2-dihydro-2-oxo-4H-pyrrolo[1,2-a]benzimidazole-3-carboxamide]	> 10 µM	> 10 mg/kg	–
CN1C2=C(C(=O)Nc3c(F)cccc3F)C(=O)C(C)(C)N2c2ccccc21 [CP #6, N-(2,6-Difluorophenyl)-1,2-dihydro-1,1,4-trimethyl-4H-pyrrolo[1,2-a]benzimidazole-3-carbozamide-2(1H) one]	> 10 µM	> 10 mg/kg	1 to 10 mg/kg

The next compounds have a lower IC50 [1] than those just listed; values first:

IC50 [1]	Structure (SMILES)	minimal effective dose [2]	ED50 [3]
1.74 µM	CN(C)c1ccc(NC(=O)C2=C3Nc4ccccc4N3CC2=O)cc1 [CP #2, N-(4-Dimethylaminophenyl)-1,2-dihydro-2-oxo-4H-pyrrolo[1,2-a]benzimidazole-3-carboxamide]	> 10 mg/kg	> 30 mg/kg
0.0801 µM	O=C1CN2C(=C1C(=O)Nc1c(F)cccc1F)Nc1ccccc12 [CP #5, N-(2,6-Difluorophenyl)-1,2-dihydro-2-oxo-4H-pyrrolo[1,2-a]benzimidazole-3-carboxamide]	< 10 mg/kg	6 mg/kg
